Values of other authors as cited in patent US20170261495A1, “MODEL SYSTEMS FOR SCREENING MODULATORS OF mTOR SIGNALING” (SHRINERS HOSPITALS FOR CHILDREN, priority 2015, published 2017).

Settings: clinical trials

In the case of CO[C@H]1C[C@@H]2CC[C@@H](C)[C@@](O)(O2)C(=O)C(=O)N2CCCC[C@H]2C(=O)O[C@H]([C@H](C)C[C@@H]2CC[C@@H](OCCO)[C@H](OC)C2)CC(=O)[C@H](C)/C=C(\C)[C@@H](O)[C@@H](OC)C(=O)[C@H](C)C[C@H](C)/C=C/C=C/C=C/1C [everolimus], the effects on epilepsy (TSC) is given as “minimal” and the “size of renal and brain tumors” value (TSC (Krueger et al., 2010)) is given as “clear reduction”.
